According to BindingDB's records for doi:10.1021/jm00069a017 (University of Minnesota, 1993):

How the values were obtained:
[1] = Selective binding affinity against Opioid receptor delta 1, using [3H]DPDPE as radioligand
[2] = Selective binding affinity against Opioid receptor delta 2, using [3H]DSLET as radioligand

Structure (SMILES): CN1CC[C@]23c4c5ccc(O)c4O[C@H]2C(=O)C2(Cc4ccccc4C2)C[C@@]3(O)[C@H]1C5 [Spiroindanyloxymorphone]
- Ki [1]: 1.4 nM
- Ki [2]: 3.3 nM
